In US7973219B2, “Method for producing transgenic plants resistant to weed control compounds which disrupt the porphyrin pathways of plants” (Sumitomo Chemical Company, Limited, priority 1998, dated 2011) one finds Relative absorbance data, which are given here for one compound.

Assay [1] concerns E. coli BT3/pACYCSP+pYAGF strain. As to the kind of experiment: Growth of E. coli BT3/pACYCSP+pYAGF with herbicidal compound. The format is cell-based, Escherichia coli. The settings on record: 1 ppm, 18 hours culture, Table 15. From the text:
(§1) According to the description of Gibson, L. C. D. et al., Proc. Natl. Acad. Sci. USA, 92; p 1941 (1995), the DNA fragment containing bchH gene prepared in Example 1 was digested with the restriction enzymes NdeI and BglII. The resultant DNA fragment was inserted between NdeI restriction site and BamHI restriction site of expression vector pET11a (manufactured by Stratagene) to obtain plasmid pETBCH (FIG. 1). This plasmid pETBCH was introduced into E. coli BL21(DE3) strain competent cells (manufactured by Stratagene) according to the manual attached to the competent cells to obtain E. coli BL21(DE3)/pETBCH strain. The strain was inoculated into 1.5 ml LB liquid culture medium (1% tryptone, 0.5% yeast extract, 0.5% NaCl) containing 100 μg/ml ampicillin in a tube (14×10 mm), and the tube was covered with aluminum foil (hereinafter referred to as dark conditions), cultured with shaking at 37° C. under light of fluorescent lamp (about 8000 lux). When the absorbance at 600 nm of the liquid culture medium became about 0.6, isopropyl β-D-thiogalactopyranoside (IPTG) was added to the liquid culture medium so that the final concentration was 0.4 mM, and the culture was continued for about additional 20 hours. […]

Assay [2] concerns E. coli BT3/pACYCSP+pHASYS4 strain. As to the kind of experiment: Growth of E. coli BT3/pACYCSP+pHASYS4 with herbicidal compound. The format is cell-based, Escherichia coli. The note with it: 1 ppm, 18 hours culture, Table 16.
Source text: as §1

As to `C#CCOc1cc(N2C(=O)C3=C(CCCC3)C2=O)c(F)cc1Cl` [Structure 8], the Relative absorbance was 0.96 in assay [1] (in the dark), 0.62 in assay [1] (in the light), 1.0 in assay [2] (in the dark) and 0.91 in assay [2] (in the light).
